Patent publication US7282492B2, “Insecticidal composition having improved storage stability” (priority 2001, dated 2007)

Assay: Storage stability of Dimethoate emulsifiable concentrates Ia, Ib, Ic (Example 1)
Format: physicochemical
Conditions: stored 14 days at 54° C.; Table 1
Experimental: Three emulsifiable concentrates (Ia, Ib and Ic) containing. Dimethoate were prepared by mixing the components listed below in the amounts stated. Said amounts are parts by weight.
The formulations Ia and Ib are not according to the invention but serve as comparison examples to formulation Ic (according to the invention).
The formulations were stored at different temperatures for various periods of time, whereupon the pro rata share of Dimethoate degradation was determined.

With `O=C1C=CC(=O)O1` [maleic anhydride] the “Stabilization of Dimethoate relative to acetic anhydride” value was “twice as effectively”.
